Results taken from PubChem BioAssay AID330 (DTP/NCI, 2004).
“And” between values parts separate entries of the source, which are not always exact repeats. Equal entries are not always repeated. Toxic doses and inconclusive results are not listed.

Test system: P388 leukemia ip, CD2F1 mice, survival T/C
Assay: NCI In Vivo Anticancer Drug Screen. Data for tumor model P388 Leukemia (intraperitoneal) in CD2F1 (CDF1) mice
Settings: endpoint: median survival time, higher = longer survival
How it was run: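 Mice carrying the transplanted tumor received test compound or vehicle. Survival was recorded in each group, and the value is the treated-group measurement divided by that of the vehicle-treated control group.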

[1] = dose: 25.0 mg/kg/injection, schedule: Q04DX003 (ip), vehicle: saline
[2] = dose: 50.0 mg/kg/injection, schedule: Q04DX003 (ip), vehicle: saline
[3] = dose: 50.0 mg/kg/injection, schedule: Q01DX005 (ip), vehicle: saline with Tween-80
[4] = dose: 100.0 mg/kg/injection, schedule: Q01DX005 (ip), vehicle: saline with Tween-80
[5] = dose: 60.0 mg/kg/injection, schedule: Q01DX005 (ip), vehicle: saline with Tween-80
[6] = dose: 120.0 mg/kg/injection, schedule: Q01DX005 (ip), vehicle: saline with Tween-80
[7] = dose: 240.0 mg/kg/injection, schedule: Q01DX005 (ip), vehicle: saline with Tween-80
[8] = dose: 50.0 mg/kg/injection, schedule: Q01DX009 (ip), vehicle: saline with Tween-80
[9] = dose: 100.0 mg/kg/injection, schedule: Q01DX009 (ip), vehicle: saline with Tween-80
[10] = dose: 200.0 mg/kg/injection, schedule: Q01DX009 (ip), vehicle: saline with Tween-80
[11] = dose: 25.0 mg/kg/injection, schedule: Q04DX003 (ip), vehicle: saline with Tween-80
[12] = dose: 50.0 mg/kg/injection, schedule: Q04DX002 (ip), vehicle: saline with Tween-80
[13] = dose: 100.0 mg/kg/injection, schedule: Q04DX002 (ip), vehicle: saline with Tween-80
[14] = dose: 200.0 mg/kg/injection, schedule: Q04DX002 (ip), vehicle: saline with Tween-80

CC[C@]12CN3CCc4c([nH]c5ccccc45)[C@@](C(=O)OC)(c4cc5c(cc4OC)N(C=O)[C@H]4[C@@](O)(C(=O)OC)[C@H](OC(C)=O)[C@]6(CC)C=CCN7CC[C@]54[C@@H]76)C[C@H](C3)[C@H]1O2
T/C (dose: 1.0 mg/kg/injection, schedule: Q01DX009 (ip), vehicle: saline): 123 % of control
T/C (dose: 4.0 mg/kg/injection, schedule: Q01DX009 (ip), vehicle: saline): 166 % of control
T/C (dose: 6.0 mg/kg/injection, schedule: Q01DX009 (ip), vehicle: saline): 175 % of control

CSc1nc(=S)c2[nH]c(C)nc2[nH]1
T/C (dose: 6.25 mg/kg/injection, schedule: Q04DX003 (ip), vehicle: saline): 96 % of control
T/C (dose: 12.5 mg/kg/injection, schedule: Q04DX003 (ip), vehicle: saline): 96 % of control
T/C [1]: 100 % of control
T/C [2]: 100 % of control

O=C1OCC2CC3c4ccccc4C12c1ccccc13 (stereo unspecified)
T/C (dose: 25.0 mg/kg/injection, schedule: Q01DX001 (ip), vehicle: Klucel (hydroxypropylcellulose) (HPC)): 100 % of control
T/C (dose: 50.0 mg/kg/injection, schedule: Q01DX001 (ip), vehicle: Klucel (hydroxypropylcellulose) (HPC)): 94 % of control
T/C (dose: 100.0 mg/kg/injection, schedule: Q01DX001 (ip), vehicle: Klucel (hydroxypropylcellulose) (HPC)): 100 % of control
T/C (dose: 200.0 mg/kg/injection, schedule: Q01DX001 (ip), vehicle: Klucel (hydroxypropylcellulose) (HPC)): 103 % of control

CC(=O)c1c(-c2ccc(F)cc2)c(-c2ccc(F)cc2)n[nH]c1=O
T/C [3]: 100 % of control
T/C [4]: 100 % of control
T/C (dose: 200.0 mg/kg/injection, schedule: Q01DX005 (ip), vehicle: saline with Tween-80): 97 % of control

O=C(Cc1nc2ccc([N+](=O)[O-])cc2nc1CC(=O)c1ccccc1)c1ccccc1
T/C [5]: 110 % of control
T/C [6]: 103 % of control
T/C [7]: 100 % of control

NC(N)=NS(=O)(=O)c1ccc(N=c2c3ccccc3n(Cc3ccccc3)c3ccccc23)cc1
T/C [3]: 97 % of control
T/C [4]: 98 % of control

O=C(O)c1cc(-c2cccc3ccccc23)nc2cc3ccccc3cc12
T/C [8]: 106 % of control and 94 % of control
T/C [9]: 100 % of control
T/C [10]: 102 % of control
T/C (dose: 400.0 mg/kg/injection, schedule: Q01DX009 (ip), vehicle: saline with Tween-80): 118 % of control

O=C(OC1CCc2ccccc2C1)c1ccc(N=Nc2ccccc2)cc1 (stereo unspecified)
T/C (dose: 15.0 mg/kg/injection, schedule: Q01DX005 (ip), vehicle: saline with Tween-80): 100 % of control
T/C (dose: 30.0 mg/kg/injection, schedule: Q01DX005 (ip), vehicle: saline with Tween-80): 97 % of control
T/C [5]: 91 % of control
T/C [6]: 86 % of control

O=C(NC(=S)c1cccs1)NS(=O)(=O)c1ccc(Cl)cc1
T/C (dose: 25.0 mg/kg/injection, schedule: Q01DX001 (ip), vehicle: saline with Tween-80): 98 % of control
T/C (dose: 50.0 mg/kg/injection, schedule: Q01DX001 (ip), vehicle: saline with Tween-80): 98 % of control
T/C (dose: 100.0 mg/kg/injection, schedule: Q01DX001 (ip), vehicle: saline with Tween-80): 98 % of control

CCc1cccc(C(C)C)c1NC1=C([n+]2ccc(C)cc2)C(=O)c2ccccc2C1=O
T/C [5]: 117 % of control
T/C [6]: 106 % of control
T/C [7]: 119 % of control

CC(C)=NNC(=O)C1CCN1Cc1ccccc1 (stereo unspecified)
T/C (dose: 50.0 mg/kg/injection, schedule: Q01DX001 (ip), vehicle: saline): 106 % of control
T/C (dose: 100.0 mg/kg/injection, schedule: Q01DX001 (ip), vehicle: saline): 106 % of control
T/C (dose: 200.0 mg/kg/injection, schedule: Q01DX001 (ip), vehicle: saline): 111 % of control
T/C (dose: 400.0 mg/kg/injection, schedule: Q01DX001 (ip), vehicle: saline): 106 % of control

CNNS(=O)(=O)CC(O)C(Cl)(Cl)Cl (stereo unspecified)
T/C (dose: 50.0 mg/kg/injection, schedule: Q01DX009 (ip), vehicle: saline): 106 % of control
T/C (dose: 100.0 mg/kg/injection, schedule: Q01DX009 (ip), vehicle: saline): 101 % of control

CCCc1c2c(c(CCC)c3c1-c1cccc4cccc-3c14)-c1ccccc1C2=O
T/C (dose: 100.0 mg/kg/injection, schedule: Q04DX003 (ip), vehicle: saline with Tween-80): 105 % of control
T/C (dose: 200.0 mg/kg/injection, schedule: Q04DX003 (ip), vehicle: saline with Tween-80): 95 % of control

CP1(=O)CC(=O)CCCCC(=O)C1
T/C (dose: 6.25 mg/kg/injection, schedule: Q01DX009 (ip), vehicle: saline): 104 % of control
T/C (dose: 12.5 mg/kg/injection, schedule: Q01DX009 (ip), vehicle: saline): 114 % of control
T/C (dose: 25.0 mg/kg/injection, schedule: Q01DX009 (ip), vehicle: saline): 104 % of control
T/C [9]: 100 % of control
T/C [10]: 98 % of control

CNC(=S)N/N=C/Cn1cc([N+](=O)[O-])c(=O)[nH]c1=O
T/C (dose: 50.0 mg/kg/injection, schedule: Q01DX005 (ip), vehicle: Klucel (hydroxypropylcellulose) (HPC)): 98 % of control
T/C (dose: 100.0 mg/kg/injection, schedule: Q01DX005 (ip), vehicle: Klucel (hydroxypropylcellulose) (HPC)): 100 % of control

NC(CS/C(Cl)=C/Cl)C(=O)O (stereo unspecified)
T/C (dose: 12.0 mg/kg/injection, schedule: Q01DX009 (ip), vehicle: saline with Tween-80): 117 % of control
T/C (dose: 27.0 mg/kg/injection, schedule: Q01DX009 (ip), vehicle: saline with Tween-80): 117 % of control

COc1cc(C=O)c(C=O)cc1OC
T/C [11]: 100 % of control

Cc1ccc(N=C2C(=O)Nc3ccccc32)cc1
T/C [12]: 108 % of control
T/C [13]: 105 % of control
T/C [14]: 104 % of control

COc1cccc(OC)c1C(c1c(OC)cccc1OC)c1c(OC)cccc1OC
T/C (dose: 22.0 mg/kg/injection, schedule: Q04DX003 (ip), vehicle: saline with Tween-80): 109 % of control
T/C (dose: 33.0 mg/kg/injection, schedule: Q04DX003 (ip), vehicle: saline with Tween-80): 113 % of control
T/C (dose: 75.0 mg/kg/injection, schedule: Q04DX003 (ip), vehicle: saline with Tween-80): 109 % of control

O=C(O)CCCCCCC(=O)CCl
T/C [1]: 110 % of control
T/C [2]: 110 % of control
T/C (dose: 50.0 mg/kg/injection, schedule: Q04DX003 (ip), vehicle: suspension in saline): 119 % of control
T/C (dose: 100.0 mg/kg/injection, schedule: Q04DX003 (ip), vehicle: saline): 121 % of control
T/C (dose: 100.0 mg/kg/injection, schedule: Q04DX003 (ip), vehicle: suspension in saline): 116 % of control

Cc1ccc(N=NN(C)C)cc1
T/C (dose: 12.5 mg/kg/injection, schedule: Q01DX009 (ip), vehicle: saline with Tween-80): 110 % of control
T/C (dose: 12.5 mg/kg/injection, schedule: Q04DX003 (ip), vehicle: saline with Tween-80): 104 % of control
T/C (dose: 25.0 mg/kg/injection, schedule: Q01DX009 (ip), vehicle: saline with Tween-80): 115 % of control
T/C [11]: 100 % of control
T/C (dose: 33.0 mg/kg/injection, schedule: Q01DX009 (ip), vehicle: saline with Tween-80): 118 % of control
T/C [8]: 122 % of control
T/C (dose: 50.0 mg/kg/injection, schedule: Q04DX003 (ip), vehicle: saline with Tween-80): 109 % of control

NCP(=O)(CN)CN
T/C (dose: 50.0 mg/kg/injection, schedule: Q01DX009 (ip), vehicle: Klucel (hydroxypropylcellulose) (HPC)): 99 % of control
T/C (dose: 100.0 mg/kg/injection, schedule: Q01DX009 (ip), vehicle: Klucel (hydroxypropylcellulose) (HPC)): 100 % of control
T/C (dose: 200.0 mg/kg/injection, schedule: Q01DX009 (ip), vehicle: Klucel (hydroxypropylcellulose) (HPC)): 100 % of control

CN=C(N)N/N=C(\C)c1ccc2c(ccc3ccccc32)c1
T/C (dose: 6.25 mg/kg/injection, schedule: Q04DX002 (ip), vehicle: saline with Tween-80): 105 % of control and 108 % of control
T/C (dose: 12.5 mg/kg/injection, schedule: Q04DX002 (ip), vehicle: saline with Tween-80): 104 % of control and 107 % of control
T/C (dose: 25.0 mg/kg/injection, schedule: Q04DX002 (ip), vehicle: saline with Tween-80): 122 % of control
T/C [12]: 123 % of control
T/C [13]: 123 % of control
T/C [14]: 107 % of control

COc1ccc(SS(=O)c2ccccc2)cc1 (stereo unspecified)
T/C [13]: 105 % of control
T/C [14]: 111 % of control
T/C (dose: 400.0 mg/kg/injection, schedule: Q04DX002 (ip), vehicle: saline with Tween-80): 108 % of control
